Key:
[1] = test system: barnyardgrass; experiment: Test A pre-/postemergence herbicide test; assay type: in vivo, Echinochloa crus-galli
Outline: (§1)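 Visual injury scores on a 0–100 scale (100 = complete control) taken about ten days post-treatment in greenhouse against untreated controls; dash means no result. Treatments: preemergence soil spray and postemergence spray to runoff on one- to two-leaf plants 2 to 10 cm tall, surfactant-containing formulation.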

[2] = test system: large crabgrass; experiment: Test A pre-/postemergence herbicide test; assay type: in vivo, Digitaria sanguinalis
Outline: as §1

[3] = test system: giant foxtail; experiment: Test A pre-/postemergence herbicide test; assay type: in vivo, Setaria faberi
Outline: as §1

[4] = test system: morningglory; experiment: Test A pre-/postemergence herbicide test; assay type: in vivo, Ipomoea spp.
Outline: as §1

[5] = test system: redroot pigweed; experiment: Test A pre-/postemergence herbicide test; assay type: in vivo, Amaranthus retroflexus
Outline: as §1

[6] = test system: velvetleaf; experiment: Test A pre-/postemergence herbicide test; assay type: in vivo, Abutilon theophrasti
Outline: as §1

[7] = test system: barnyardgrass; experiment: Test B pre-/postemergence herbicide test; assay type: in vivo, Echinochloa crus-galli; settings: for Barnyardgrass plant response rating: postemergence, visual rating, scale 0 (no effect) to 100 (complete control)
Outline: (§2)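 Species tested were Echinochloa crus-galli, Ipomoea coccinea, Xanthium strumarium and Oryza sativa, treated both before emergence and at the 1- to 4-leaf stage; rice and barnyardgrass were also tested under flooding at 2 leaves. Greenhouse incubation lasted 13–15 days before visual 0–100 scoring.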

[8] = test system: Surinam grass; experiment: Test B pre-/postemergence herbicide test; assay type: in vivo, Urochloa decumbens; settings: for Surinam Grass plant response rating: postemergence, visual rating, scale 0 (no effect) to 100 (complete control)
Outline: (§3)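 Test chemicals in a non-phytotoxic solvent mixture with surfactant were applied preemergence to seeded species and postemergence to plants 2-18 cm tall (1- to 4-leaf stage); rice and barnyardgrass were also tested in a flooded paddy at the 2-leaf stage. Visual rating versus controls after 13-15 days in greenhouse, scale 0 (no effect) to 100 (complete control).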

[9] = test system: cocklebur; experiment: Test B pre-/postemergence herbicide test; assay type: in vivo, Xanthium strumarium; settings: for Cocklebur plant response rating: postemergence, visual rating, scale 0 (no effect) to 100 (complete control)
Outline: as §2

[10] = test system: corn; experiment: Test B pre-/postemergence herbicide test; assay type: in vivo, Zea mays; settings: for Corn plant response rating: postemergence, visual rating, scale 0 (no effect) to 100 (complete control)
Outline: as §3

[11] = test system: large crabgrass; experiment: Test B pre-/postemergence herbicide test; assay type: in vivo, Digitaria sanguinalis; settings: for Crabgrass, Large plant response rating: postemergence, visual rating, scale 0 (no effect) to 100 (complete control)
Outline: as §3

[12] = test system: giant foxtail; experiment: Test B pre-/postemergence herbicide test; assay type: in vivo, Setaria faberi; settings: for Foxtail, Giant plant response rating: postemergence, visual rating, scale 0 (no effect) to 100 (complete control)
Outline: as §3

[13] = test system: lambsquarters; experiment: Test B pre-/postemergence herbicide test; assay type: in vivo, Chenopodium album; settings: for Lambsquarters plant response rating: postemergence, visual rating, scale 0 (no effect) to 100 (complete control)
Outline: as §3

[14] = test system: morningglory; experiment: Test B pre-/postemergence herbicide test; assay type: in vivo, Ipomoea coccinea; settings: for Morningglory plant response rating: postemergence, visual rating, scale 0 (no effect) to 100 (complete control)
Outline: as §2

[15] = test system: pigweed; experiment: Test B pre-/postemergence herbicide test; assay type: in vivo, Amaranthus retroflexus; settings: for Pigweed plant response rating: postemergence, visual rating, scale 0 (no effect) to 100 (complete control)
Outline: as §3

[16] = test system: rice; experiment: Test B pre-/postemergence herbicide test; assay type: in vivo, Oryza sativa; settings: preemergence
Outline: as §3

[17] = test system: velvetleaf; experiment: Test B pre-/postemergence herbicide test; assay type: in vivo, Abutilon theophrasti; settings: for Velvetleaf plant response rating: postemergence, visual rating, scale 0 (no effect) to 100 (complete control)
Outline: as §3

[18] = test system: blackgrass; experiment: Test B postemergence herbicide test; assay type: in vivo, Alopecurus myosuroides; settings: postemergence, visual rating, scale 0 (no effect) to 100 (complete control)
Outline: (§4)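 Plants grow to 1- to 4-leaf stage (2–18 cm) for postemergence spraying, or to 2-leaf stage for the paddy test. Formulated compound is applied. Greenhouse holding lasts 13–15 days. Response is scored visually relative to controls, 0 no effect to 100 complete control; a dash means no result.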

[19] = test system: wheat; experiment: Test B postemergence herbicide test; assay type: in vivo, Triticum aestivum; design: key to Wheat plant response rating: 0 = no effect, 100 = complete control; settings: postemergence, visual rating, scale 0 (no effect) to 100 (complete control)
Outline: as §4

[20] = test system: wild oat; experiment: Test B postemergence herbicide test; assay type: in vivo, Avena fatua; settings: postemergence, visual rating, scale 0 (no effect) to 100 (complete control)
Outline: as §4

[21] = test system: rice; experiment: Test B flooded paddy test; assay type: in vivo, Oryza sativa; settings: 1000 g ai/ha, visual rating, scale 0 to 100 (0 no effect, 100 complete control), 13 to 15 days
Outline: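 Paddy species grown to the 2-leaf stage under flooding; blackgrass sprayed postemergence at 2–18 cm (1- to 4-leaf stage). Plants kept in a greenhouse for 13 to 15 days, then visually rated against controls on 0 (no effect) to 100 (complete control).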

[22] = test system: small flower umbrella sedge; experiment: Test B flooded paddy test; assay type: in vivo, Cyperus difformis; settings: 1000 g ai/ha, visual rating, scale 0 to 100 (0 no effect, 100 complete control), 13 to 15 days
Outline: as §4

[23] = test system: ducksalad; experiment: Test B flooded paddy test; assay type: in vivo, Heteranthera limosa; settings: 1000 g ai/ha, visual rating, scale 0 to 100 (0 no effect, 100 complete control), 13 to 15 days
Outline: as §4

[24] = test system: barnyardgrass; experiment: Test B flooded paddy test; assay type: in vivo, Echinochloa crus-galli; settings: 1000 g ai/ha, visual rating, scale 0 to 100 (0 no effect, 100 complete control), 13 to 15 days
Outline: as §4

[25] = Postemergence, 500 g ai/ha, 0 to 100 scale, 0 no effect, 100 complete control
[26] = Postemergence, 2000 g ai/ha, 0 to 100 scale, 0 no effect, 100 complete control
[27] = Preemergence, 2000 g ai/ha, visual rating, 0 to 100 scale (0 no effect, 100 complete control)
[28] = preemergence, 500 g ai/ha, visual injury, 0 to 100 scale (0 no effect, 100 complete control)
[29] = 125 g ai/ha, 0 = no effect, 100 = complete control, preemergence
[30] = 500 g ai/ha, visual rating 0-100, 0 no effect, 100 complete control, preemergence

Compound: CCOc1cccc(NC(=O)c2cn(C(C)(C)C)nc2C)c1 [Compound 190]
- Barnyardgrass plant response rating [1, 25]: 0
- Plant response rating, Barnyardgrass [1, 26]: 0
- Barnyardgrass plant response rating [1, 27]: 40
- Barnyardgrass plant response rating [1, 28]: 20
- Crabgrass, Large plant response rating [2, 25]: 10
- Plant response rating, Crabgrass, Large [2, 26]: 15
- Crabgrass, Large plant response rating [2, 27]: 70
- Crabgrass, Large plant response rating [2, 28]: 40
- Foxtail, Giant plant response rating [3, 25]: 0
- Plant response rating, Foxtail, Giant [3, 26]: 0
- Foxtail, Giant plant response rating [3, 27]: 10
- Foxtail, Giant plant response rating [3, 28]: 0
- Morningglory plant response rating [4, 25]: 10
- Plant response rating, Morningglory [4, 26]: 25
- Morningglory plant response rating [4, 27]: 25
- Morningglory plant response rating [4, 28]: 10
- Pigweed plant response rating [5, 25]: 10
- Plant response rating, Pigweed [5, 26]: 20
- Pigweed plant response rating [5, 27]: 85
- Pigweed plant response rating [5, 28]: 25
- Velvetleaf plant response rating [6, 25]: 0
- Plant response rating, Velvetleaf [6, 26]: 15
- Velvetleaf plant response rating [6, 27]: 15
- Velvetleaf plant response rating [6, 28]: 0
- Barnyardgrass plant response rating (0 to 100 scale) [7, 29]: 0
- Plant response rating, Barnyardgrass [7, 30]: 30
- Barnyardgrass plant response rating ([7]; 125 g ai/ha): 0
- Barnyardgrass plant response rating ([7]; 500 g ai/ha): 10
- Surinam Grass plant response rating (0 to 100 scale) [8, 29]: 0
- Plant response rating, Surinam Grass [8, 30]: 10
- Surinam Grass plant response rating ([8]; 125 g ai/ha): 10
- Surinam Grass plant response rating ([8]; 500 g ai/ha): 20
- Cocklebur plant response rating (0 to 100 scale) [9, 29]: 0
- Plant response rating, Cocklebur [9, 30]: 0
- Cocklebur plant response rating ([9]; 125 g ai/ha): 0
- Cocklebur plant response rating ([9]; 500 g ai/ha): 10
- Corn plant response rating (0 to 100 scale) [10, 29]: 0
- Plant response rating, Corn [10, 30]: 0
- Corn plant response rating ([10]; 125 g ai/ha): 10
- Corn plant response rating ([10]; 500 g ai/ha): 10
- Crabgrass, Large plant response rating (0 to 100 scale) [11, 29]: 30
- Plant response rating, Crabgrass, Large [11, 30]: 80
- Crabgrass, Large plant response rating ([11]; 125 g ai/ha): 10
- Crabgrass, Large plant response rating ([11]; 500 g ai/ha): 20
- Foxtail, Giant plant response rating (0 to 100 scale) [12, 29]: 0
- Plant response rating, Foxtail, Giant [12, 30]: 10
- Foxtail, Giant plant response rating ([12]; 125 g ai/ha): 10
- Foxtail, Giant plant response rating ([12]; 500 g ai/ha): 10
- Lambsquarters plant response rating (0 to 100 scale) [13, 29]: 0
- Plant response rating, Lambsquarters [13, 30]: 50
- Lambsquarters plant response rating ([13]; 125 g ai/ha): 30
- Lambsquarters plant response rating ([13]; 500 g ai/ha): 80
- Morningglory plant response rating (0 to 100 scale) [14, 29]: 0
- Plant response rating, Morningglory [14, 30]: 0
- Morningglory plant response rating ([14]; 125 g ai/ha): 50
- Morningglory plant response rating ([14]; 500 g ai/ha): 90
- Pigweed plant response rating (0 to 100 scale) [15, 29]: 30
- Plant response rating, Pigweed [15, 30]: 90
- Pigweed plant response rating ([15]; 125 g ai/ha): 30
- Pigweed plant response rating ([15]; 500 g ai/ha): 70
- Rice plant response rating (0 to 100 scale) ([16]; 125 g ai/ha, 0 = no effect, 100 = complete control): 0
- Plant response rating, Rice ([16]; 500 g ai/ha, visual rating 0-100, 0 no effect, 100 complete control): 30
- Velvetleaf plant response rating (0 to 100 scale) [17, 29]: 0
- Plant response rating, Velvetleaf [17, 30]: 10
- Velvetleaf plant response rating ([17]; 125 g ai/ha): 20
- Velvetleaf plant response rating ([17]; 500 g ai/ha): 40
- Blackgrass plant response rating ([18]; 125 g ai/ha): 0
- Blackgrass plant response rating ([18]; 500 g ai/ha): 0
- Wheat plant response rating ([19]; 125 g ai/ha): 0
- Wheat plant response rating ([19]; 500 g ai/ha): 0
- Oat, Wild plant response rating ([20]; 125 g ai/ha): 10
- Oat, Wild plant response rating ([20]; 500 g ai/ha): 20
- Rice plant response rating [21]: 0
- Sedge, Umbrella plant response rating [22]: 60
- Ducksalad plant response rating [23]: 60
- Barnyardgrass plant response rating [24]: 20

Source: patent US20060069132A1, “Azolecarboxamide herbicides” (priority 2004, published 2006)
